Values quoted from earlier work, collected in patent publication US20070098786A1, “ENTERIC VALPROIC ACID” (Banner Pharmacaps, Inc., priority 2005, published 2007).

solubility in water: soluble in water
SMILES: CCCC(CCC)C(=O)O [Divalproex sodium]
